Reference: ChEMBL document CHEMBL1201862, “PubChem BioAssay data set” (2004)
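Tested at 5 concentrations; 48 h exposure; 96-well plates; endpoints linearly interpolated, else capped at highest concentration. Here, GI50 denotes the concentration required for 50% inhibition of growth.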 Activity calls are given as the source filed them. No stated cut-off is given here; in the data, active = GI50 up to about 1.1 µM and inactive = higher.

Legend:
Assay in all cases: DTP human tumour cell line panel, 48 h
OVCAR-5 = system: OVCAR-5
BT-549 = system: BT-549
T47D = system: T47D
MDA-MB-231 = system: MDA-MB-231
HCT-116 = system: HCT-116
Malme-3M = system: Malme-3M
SF-295 = system: SF-295
MDA-N = system: MDA-N
SNB-75 = system: SNB-75
LOX IMVI = system: LOX IMVI
HL-60 = system: HL-60
UACC-257 = system: UACC-257
OVCAR-3 = system: OVCAR-3
CCRF-CEM = system: CCRF-CEM
NCI-H460 = system: NCI-H460
OVCAR-4 = system: OVCAR-4
786-0 = system: 786-0
SF-539 = system: SF-539
K562 = system: K562
SR = system: SR

Structure (SMILES)	GI50 (OVCAR-5)	GI50 (BT-549)	GI50 (T47D)	GI50 (MDA-MB-231)	GI50 (HCT-116)	GI50 (Malme-3M)	GI50 (SF-295)	GI50 (MDA-N)	GI50 (SNB-75)	GI50 (LOX IMVI)	GI50 (HL-60)	GI50 (UACC-257)	GI50 (OVCAR-3)	GI50 (CCRF-CEM)	GI50 (NCI-H460)	GI50 (OVCAR-4)	GI50 (786-0)	GI50 (SF-539)	GI50 (K562)	GI50 (SR)
O=C(c1ccsc1)c1nccc2c1cnc1ccccc12	49.8 µM (inactive)	> 100 µM (inactive)	> 100 µM (inactive)	61 µM (inactive)	62.1 µM (inactive)	65.5 µM (inactive)	45.5 µM (inactive)	> 100 µM (inactive)	30.5 µM (inactive)	> 100 µM (inactive)	2.47 µM (inactive)	45.2 µM (inactive)	> 100 µM (inactive)	> 100 µM (inactive)	89.9 µM (inactive)	94.8 µM (inactive)	97.7 µM (inactive)	> 100 µM (inactive)		
Cc1cc(C)c2c(c1)CC1(Cc3c(C)cc(C)cc3C1=O)C2=O (stereo not drawn)	> 100 µM (inactive)	> 100 µM (inactive)		> 100 µM (inactive)		92.9 µM (inactive)	> 100 µM (inactive)	> 100 µM (inactive)	> 100 µM (inactive)	> 100 µM (inactive)	> 100 µM (inactive)	> 100 µM (inactive)	> 100 µM (inactive)	> 100 µM (inactive)	> 100 µM (inactive)	46.3 µM (inactive)	> 100 µM (inactive)	35.8 µM (inactive)	> 100 µM (inactive)	> 100 µM (inactive)
O=C(c1cccc2ccccc12)C1(Br)S(=O)(=O)OCCOS1(=O)=O	> 100 µM (inactive)	> 100 µM (inactive)		> 100 µM (inactive)	> 100 µM (inactive)	> 100 µM (inactive)	> 100 µM (inactive)	> 100 µM (inactive)		> 100 µM (inactive)	> 100 µM (inactive)	> 100 µM (inactive)	> 100 µM (inactive)		> 100 µM (inactive)	> 100 µM (inactive)	> 100 µM (inactive)		> 10 µM (inactive)	> 100 µM (inactive)
COC(=O)CNC(=O)CNC(=O)CSc1nnc(COc2ccc(Cl)cc2)n1-c1ccccc1	> 100 µM (inactive)	24.4 µM (inactive)		19.1 µM (inactive)	38.7 µM (inactive)	18.7 µM (inactive)	> 100 µM (inactive)	23.7 µM (inactive)	25.4 µM (inactive)	23.2 µM (inactive)		19.1 µM (inactive)	19.8 µM (inactive)	25.3 µM (inactive)	62.8 µM (inactive)	> 100 µM (inactive)	> 100 µM (inactive)	> 100 µM (inactive)	30.1 µM (inactive)	29 µM (inactive)
CC(=O)c1cccc(Nc2nc3ccccc3c3[nH]c4ccccc4c23)c1	6.52 µM (inactive)	> 100 µM (inactive)	3.48 µM (inactive)	3.19 µM (inactive)	4.28 µM (inactive)	3.61 µM (inactive)	3.53 µM (inactive)	4.73 µM (inactive)				9.04 µM (inactive)	2.48 µM (inactive)	5.74 µM (inactive)	1.7 µM (inactive)		3.01 µM (inactive)	4 µM (inactive)	4.69 µM (inactive)	
CCOC(=O)C(CO)c1nc2c([nH]c1=O)c(=O)n(C)c(=O)n2C (stereo not drawn)	> 100 µM (inactive)	> 100 µM (inactive)	13.7 µM (inactive)	> 100 µM (inactive)	> 100 µM (inactive)	> 100 µM (inactive)	> 100 µM (inactive)			> 100 µM (inactive)	> 100 µM (inactive)	> 100 µM (inactive)	> 100 µM (inactive)	> 100 µM (inactive)	> 100 µM (inactive)		> 100 µM (inactive)	> 100 µM (inactive)	> 100 µM (inactive)	> 100 µM (inactive)
O=c1c2c3c(sc2nc2n1sc1nc4sc5c(c4c(=O)n12)CCCC5)CCCC3	> 100 µM (inactive)	21.9 µM (inactive)		25.9 µM (inactive)	35.7 µM (inactive)		64.6 µM (inactive)	> 51.3 µM (inactive)		> 79.4 µM (inactive)	27.2 µM (inactive)	> 96.8 µM (inactive)	24.2 µM (inactive)	24.4 µM (inactive)	> 100 µM (inactive)	18.7 µM (inactive)	17.3 µM (inactive)	56 µM (inactive)	25.1 µM (inactive)	25.8 µM (inactive)
CSc1cc(Cl)c(C)cc1S(=O)(=O)NC(=O)NNc1ccc(C)cc1	> 100 µM (inactive)		61.9 µM (inactive)	> 100 µM (inactive)	> 100 µM (inactive)	> 100 µM (inactive)	> 100 µM (inactive)	> 100 µM (inactive)	8.26 µM (inactive)	> 100 µM (inactive)			> 100 µM (inactive)	> 100 µM (inactive)	> 100 µM (inactive)	> 100 µM (inactive)	> 100 µM (inactive)	> 100 µM (inactive)	> 100 µM (inactive)	40.2 µM (inactive)
CN(C)CCNC(=O)c1cc(NC(=O)c2cc(NC(=O)CC/C=C3/[C@@H]4CC[C@H]3N=N4)cn2C)cn1C	> 100 µM (inactive)	> 100 µM (inactive)		> 100 µM (inactive)	> 100 µM (inactive)	70.3 µM (inactive)	> 100 µM (inactive)	> 100 µM (inactive)	> 100 µM (inactive)	> 100 µM (inactive)	> 100 µM (inactive)	> 100 µM (inactive)	> 100 µM (inactive)	> 100 µM (inactive)	> 100 µM (inactive)	> 100 µM (inactive)	> 100 µM (inactive)	> 100 µM (inactive)	> 100 µM (inactive)	> 100 µM (inactive)
O=C(c1cc2ccccc2cc1O)N1CCCCC1		35.2 µM (inactive)	37.6 µM (inactive)	68.2 µM (inactive)	39.6 µM (inactive)		25.4 µM (inactive)		31.5 µM (inactive)	55.1 µM (inactive)	20.4 µM (inactive)	53 µM (inactive)		14.5 µM (inactive)	27.7 µM (inactive)	37.7 µM (inactive)	59.4 µM (inactive)	37.3 µM (inactive)	21.6 µM (inactive)	16.7 µM (inactive)
COc1c(CC=C(C)C)c(O)c(C(CC(C)C)c2c(O)c3c(c(C(C)=O)c2O)OC(C(C)(C)O)C3)c(O)c1C(C)=O (stereo not drawn)	6.93 µM (inactive)	3 µM (inactive)	3.46 µM (inactive)		3.64 µM (inactive)	3.91 µM (inactive)	4.55 µM (inactive)	4.05 µM (inactive)	4.92 µM (inactive)	4.78 µM (inactive)	3.52 µM (inactive)	4.18 µM (inactive)	6.08 µM (inactive)	2.58 µM (inactive)		4.57 µM (inactive)	5.65 µM (inactive)	4.24 µM (inactive)	2.6 µM (inactive)	2.17 µM (inactive)
Clc1ccc(Nc2nn3c(CCCCCCCCc4nnc5sc(Nc6ccc(Cl)cc6)nn45)nnc3s2)cc1	> 100 µM (inactive)	> 100 µM (inactive)	> 100 µM (inactive)	29.4 µM (inactive)	> 100 µM (inactive)	> 100 µM (inactive)	36 µM (inactive)	> 100 µM (inactive)	23.3 µM (inactive)	> 100 µM (inactive)		> 100 µM (inactive)	> 100 µM (inactive)	17.6 µM (inactive)	> 100 µM (inactive)	> 100 µM (inactive)	51.6 µM (inactive)	> 100 µM (inactive)	50.5 µM (inactive)	
COc1ccccc1C(=O)OCC1CCCN2CCCCC12 (stereo not drawn)		17.7 µM (inactive)	16.1 µM (inactive)	24.8 µM (inactive)	40.3 µM (inactive)	33.6 µM (inactive)	26.3 µM (inactive)		20.6 µM (inactive)	17.1 µM (inactive)	21.1 µM (inactive)	31 µM (inactive)		18.6 µM (inactive)	21.6 µM (inactive)	83 µM (inactive)	> 100 µM (inactive)	> 100 µM (inactive)	33.9 µM (inactive)	
COc1cc(C2c3cc4c(cc3OC(N3CCOCC3)C2C)OCO4)cc(OC)c1O (stereo not drawn)	46.6 µM (inactive)	7.43 µM (inactive)	9.04 µM (inactive)	10.1 µM (inactive)	4.13 µM (inactive)	3.29 µM (inactive)	3.59 µM (inactive)		1.79 µM (inactive)	6.7 µM (inactive)	3.52 µM (inactive)	17.8 µM (inactive)	5.42 µM (inactive)	3.14 µM (inactive)	5.09 µM (inactive)	36.6 µM (inactive)	10.1 µM (inactive)	5.66 µM (inactive)	3.38 µM (inactive)	3.82 µM (inactive)
CC(C)(C)c1cc(C(=O)/C=C/c2ccc3c(c2)CCO3)cc(C(C)(C)C)c1O	2.39 µM (inactive)	1.8 µM (inactive)	4.86 µM (inactive)	2.28 µM (inactive)	1.2 µM (inactive)	> 100 µM (inactive)	1.69 µM (inactive)		0.733 µM (active)	1.57 µM (inactive)	0.951 µM (active)	0.792 µM (active)	5.07 µM (inactive)	1.07 µM (active)	0.76 µM (active)	0.869 µM (active)	1.12 µM (active)	0.619 µM (active)	0.938 µM (active)	0.548 µM (active)
COc1ccc(C2(c3ccc(OC)cc3)OC(=O)c3cccc4cccc2c34)cc1	> 100 µM (inactive)	11.4 µM (inactive)	2.24 µM (inactive)	> 100 µM (inactive)	3.71 µM (inactive)	5.37 µM (inactive)	3.97 µM (inactive)			8.89 µM (inactive)		> 100 µM (inactive)	4.81 µM (inactive)	3.18 µM (inactive)	4.69 µM (inactive)	4.85 µM (inactive)	5.41 µM (inactive)	3.48 µM (inactive)	3.36 µM (inactive)	2.54 µM (inactive)
